Assay [1] has as its system C2C12 muscle cells. Description: GLUT4 translocation assay (immunofluorescence). Format: cell-based. To be noted: for GLUT4 translocation to the plasma membrane / time at which GLUT4 translocation occurs after treatment: 2 µM compound. The source says:
(§1) Figure 6 The compounds affected the distribution of GLUT4 proteins and facilitated glucose uptake in the C2C12 muscle cells. The GLUT4 proteins were visualized via the green fluorescent FITC labeled-GLUT4 antibody. […] The white arrows show the presence of GLUT4 near the plasma membrane, and the red arrows show the presence of GLUT4 within the nucleus. The figures denote the time lapse (m = minutes) after treatment. The images were captured using a LSM710 laser scanning microscope with a 63X oil immersion objective (Carl Zeiss, Oberkochen, Germany); (F) The amount of 2-NBDG uptake in the cells after treatment 6OA, DS and Sw or insulin was quantified at OD 510 nm. The fold increase was plotted against the treated concentration of natural compounds. The symbol * denotes a significant difference at p < 0.05 compared with DMSO (Tukey’s test, n = 6), DMSO = 1.
The differentiated C2C12 muscle cells cultured in 8-well chamber slides were treated with DMSO, insulin and S. macrophylla compounds for 15, 30, 60 and 120 min in DMEM low glucose + 0.1% (w/v) BSA. The cells were then fixed with 4% (v/v) paraformaldehyde, washed with MAXwash^TM washing medium (Active Motif, Tokyo, Japan) and blocked with Maxblock^TM blocking medium (Active Motif). The cells were incubated with the GLUT4 antibody for 16 h at 4 °C and then with the fluorescent conjugated secondary antibody for 2 h at room temperature. 100 µL of Fluoroshield^TM with DAPI (Sigma-Aldrich, St. Louis, MO, USA) was added to each well and mounted with a cover slip for imaging.

Assay [2] deals with 3T3-L1 preadipocyte cells. Put plainly: Adipocyte differentiation assay, Oil Red O staining of lipid droplets. The following applies: for induction of 3T3-L1 differentiation into lipid-producing adipocytes: 2–50 µM, lower level than insulin and rosiglitazone; for ORO stained lipid droplets, fold higher than vehicle treated cells: compounds 2–50 µM; for first appearance of lipid droplets after treatment: 3T3-L1 cells. The assay is classed as cell-based. The procedure:
Figure 4 The semi-quantification of lipid droplets produced by differentiated 3T3-L1 cells at day 7 after the compound treatment. The quantification was performed by dissolving the cells in isopropanol and measuring the absorbance read out at 510 nm. […] The symbol ** denotes a significant difference at p < 0.01 compared with DMSO (Tukey’s test, n = 3).
3T3-L1 and C2C12 cells were purchased from the American Type Culture Collection (Manassas, VA, USA). The 3T3-L1 and C2C12 cells were maintained in DMEM medium supplemented with 10% (v/v) bovine serum and 10% (v/v) fetal bovine serum (FBS), respectively. The differentiation of adipocytes was initiated two days after the cells reached confluence by adding 0.5 mM isobutyl methylxanthine (IBMX), 1 µM dexamethasone and 1 µg/mL insulin to DMEM containing 10% (v/v) FBS. Two days later, the differentiation medium was replaced by DMEM containing 10% (v/v) FBS and 1 µg/mL insulin. These differentiated cells were stabilized in DMEM + 10% (v/v) FBS for another 2 days. C2C12 myocytes were induced to differentiate by substituting 10% (v/v) FBS with 10% (v/v) horse serum once the cells reached confluence. Fresh differentiation medium was replaced every two days until the myotube formation was complete.
Adipocyte differentiation is one of the major cellular responses upon PPARγ activation. 3T3-L1 pre-adipocyte cells were seeded on 24-well plates at 5 × 10^4 cells per well. Two days after reaching confluence, the cells were triggered to differentiate by insulin (positive control), DMSO (negative control), TZD, and the three natural compounds isolated from S. macrophylla (6OA, DS and Sw). […] For visualization, lipid droplets were stained by Oil Red O (ORO). The trapped ORO between the lipid droplets was then dissolved in absolute isopropanol, and the absorbance of the dissolved ORO was semi-quantitatively measured by a SpectraMax M5 multi-detection microplate reader (Molecular Devices) at a wavelength of 510 nm.

Assay [3] concerns C2C12 muscle cells. Description: Glucose uptake assay with 2-NBDG. The assay is classed as cell-based. To be noted: 2 µM compound, 60 min treatment.
Source text: as §1
C2C12 cells were grown and differentiated in 96-well culture plates. The differentiated C2C12 muscle cells were treated with DMSO, insulin, and S. macrophylla compounds for 60 min in DMEM + 0.1% (w/v) BSA. After washing three times with Krebs-Ringer Phosphate H (KRPH) buffer + 0.1% (w/v) BSA, the cells were incubated with 100 μM 2-NBDG for 15 min. After washing three times with KRPH buffer + 0.1% (w/v) BSA, the uptake of 2-NBDG was observed under a fluorescence microscope, and the fluorescence of 2-NBDG was measured with a microplate reader (Perkin Elmer, Waltham, MA, USA).

Assay [4] has as its system differentiated 3T3-L1 adipocyte cells. Put plainly: mRNA expression of PPARγ and adipogenic markers by quantitative RT-PCR. To be noted: 2 µM compound, 7 days; for PPARγ mRNA expression, fold elevation: vs DMSO; for expression levels of adipogenic markers (adiponectin, adipsin, PPARγ, GLUT4): 50 nM rosiglitazone or 1 μM insulin, normalized to β-actin, DMSO = 1. The assay is classed as cell-based. The procedure:
Figure 5 The analysis of PPARγ and selected adipogenic gene expression in differentiated 3T3-L1 adipocyte cells with quantitative RT-PCR. […] The expression values were normalized against a housekeeping gene, β-actin.
For the gene expression study, mature 3T3-L1 adipocytes were lysed 7 days after the induction of cellular differentiation. The total RNA samples were prepared according to the manufacturer's protocol (TRIzol reagent, Invitrogen Life Technologies, Carlsbad, CA, USA). The mRNA expression of the target genes was measured by quantitative RT-PCR with an iCycler iQ5 PCR Thermal Cycler (Bio-Rad Laboratories, Hercules, CA, USA). The primers for the adipogenesis-related genes, adiponectin, adipsin, GLUT4 and PPARγ, were designed using Primer 3 software (Table 1). Real-time PCR was performed according to the manufacturer’s protocol (SYBR-Green One-Step Quantitative RT-PCR). Briefly, 5 ng of total RNA, 50 nM of each primer, iScript RT enzyme and the universal SYBR Green reaction mix (Bio-Rad Laboratories) were mixed well in a final volume of 30 µL. All the PCR reactions were performed as follows: 1 cycle of 50 °C for 2 min and 95 °C for 10 min, followed by 40 cycles of 95 °C for 15 s and 60 °C for 1 min. The PCR products were subjected to a melting-curve analysis. The expression levels were normalized against a housekeeping gene, β-actin, and the expression levels of the genes in the DMSO treated cells were designated as 1.

In a further assay the target is T1, recombinant PPARγ (Homo sapiens, UniProt P37231).
T1 construct: amino acid positions 107–477 for PPARγ; His tag (pET28a) (N); made in house; host or cells: E. coli BL21
T1 sequence (P37231 107-477 isoform P37231-2): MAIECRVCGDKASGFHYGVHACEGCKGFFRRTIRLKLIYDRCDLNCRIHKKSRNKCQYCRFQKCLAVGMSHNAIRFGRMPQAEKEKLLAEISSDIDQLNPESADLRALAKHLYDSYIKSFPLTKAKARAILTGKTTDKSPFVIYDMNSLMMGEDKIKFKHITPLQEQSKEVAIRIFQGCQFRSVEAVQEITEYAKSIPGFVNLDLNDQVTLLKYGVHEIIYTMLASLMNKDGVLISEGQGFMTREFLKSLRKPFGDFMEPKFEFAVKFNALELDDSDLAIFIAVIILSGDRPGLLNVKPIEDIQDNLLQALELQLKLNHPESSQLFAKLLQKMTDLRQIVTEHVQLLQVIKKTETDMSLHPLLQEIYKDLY
T1 sequence (Q09472 39-221 partner limits assumed): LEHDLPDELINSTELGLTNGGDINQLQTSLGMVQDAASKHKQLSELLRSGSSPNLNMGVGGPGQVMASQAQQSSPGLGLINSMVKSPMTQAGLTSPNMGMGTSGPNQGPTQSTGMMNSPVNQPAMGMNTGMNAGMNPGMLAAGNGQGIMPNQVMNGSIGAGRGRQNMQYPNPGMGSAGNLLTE
Put plainly: ELISA PPARγ-binding assay (ligand-dependent binding of PPARγ to p300 coactivator). To be noted: highest binding; p300-coated plate, absorbance 405 nm. Background: ELISA stands for enzyme-linked immunosorbent assay.

The subject of the next assay is diabetic rats. The following applies: diabetic rats ref 5; cited from earlier work.

Description for recombinant PPARγ: The truncated p300 recombinant protein included a specific binding domain, LXXLL, for protein-protein interactions between p300 and PPARγ.
The ELISA binding assay used is based on the principle of binding between the ligand-dependent PPARγ and its coactivator. Briefly, 5 µg of purified recombinant p300, a PPARγ coactivator, was used to coat a 96-well microtitre plate in the presence of coating buffer (150 mM Na2CO3, 350 mM NaHCO3, pH 9.6). The plate was incubated for 2 h at room temperature. Nonspecific binding sites were blocked with 100 µL of blocking buffer [2% (w/v) BSA in 10 mM PBS, pH 7.2] for 2 h at room temperature. The recombinant PPARγ cell lysate was prepared by using the freeze/thaw cell lysis method [37]. […] These mixtures were added to the p300-coated 96-well plate, which was then incubated for 1 h at 37 °C. The presence of the PPARγ ligand led to the formation of a p300-PPARγ-ligand complex. The detection of this complex was performed through the addition of 100 µL of anti-PPARγ antibody (1:1000 dilutions) and incubation for 1 h at room temperature. Subsequently, 100 µL of the AP conjugated donkey anti-goat antibody (1:1000 dilutions) was added into each well, and the plates were at room temperature for 1 h. The pNPP substrate solution (100 µL) was added to each well and incubated for 1 h at room temperature in the dark. Finally, 2.0 N sulphuric acid (50 µL per well) was added to each well to stop the enzymatic reaction. The absorbance at 405 nm was detected with a microplate reader (SpectraMax M5, Molecular Devices, Sunnyvale, CA, USA). Throughout the procedures, the microtitre plate was washed three times with washing buffer [10 mM PBS, pH 7.2, containing 0.1% (v/v) Tween 20] after each incubation step.

For the molecule `COC(=O)C(OC(C)=O)C1C(C)(C)C(OC(C)=O)C2CC3=C4CC(=O)O[C@@H](c5ccoc5)[C@@]4(C)CCC3[C@@]1(C)C2=O` (stereo partly shown) [DS, diacetyl swietenolide], in the assay on C2C12 muscle cells [1], the “GLUT4 translocation to the plasma membrane” value is “increase in GLUT4 translocation” and the “time at which GLUT4 translocation occurs after treatment” value (“time … after treatment” for short) was at least 60 min. Besides, the “induction of 3T3-L1 differentiation into lipid-producing adipocytes” value in assay [2] was “induce 3T3-L1 cells differentiation into lipid-producing adipocytes”. Also, the “ORO stained lipid droplets, fold higher than vehicle treated cells” value in assay [2] (day 7) was 1.3–1.6 fold. Moreover, the “glucose (2-NBDG) uptake” value with C2C12 muscle cells [3] is reported as “significant increase”. Also, in assay [4], the “PPARγ mRNA expression, fold elevation” value is on record as “five- to six” and the “expression levels of adipogenic markers (adiponectin, adipsin, PPARγ, GLUT4)” value (shortened to “expression levels of adipogenic markers”) is “increase”. Besides, the “fold increase of binding between PPARγ and coactivator compared to vehicle (DMSO)” value (shortened to “fold increase”) at recombinant PPARγ was determined as 38 fold.
As to `C/C=C(\C)C(=O)OC1C2C=C3C(CC[C@@]4(C)C3CC(=O)O[C@H]4c3ccoc3)[C@@](C)(C2=O)C(C(O)C(=O)OC)C1(C)C` (stereo partly shown) [Sw, swietenine], in the assay with C2C12 muscle cells [1], the “GLUT4 translocation to the plasma membrane” value is given as “increase in GLUT4 translocation” and the “time … after treatment” value was 15 min. Moreover, the “induction of 3T3-L1 differentiation into lipid-producing adipocytes” value in assay [2] is recorded as “induce 3T3-L1 cells differentiation into lipid-producing adipocytes”. Besides, the “ORO stained lipid droplets, fold higher than vehicle treated cells” value in assay [2] (day 7) is on record as 1.3–1.6 fold. Also, the “glucose (2-NBDG) uptake” value in the assay with C2C12 muscle cells [3] is recorded as “significant increase”. In addition, in assay [4], the “PPARγ mRNA expression, fold elevation” value is recorded as “five- to six” and the “expression levels of adipogenic markers” value is “increase”. The “fold increase” value on recombinant PPARγ worked out at 36 fold. In addition, the “elevated cholesterol and triglyceride levels” value in the assay on diabetic rats is on record as “attenuate”.
On to “Insulin: known adipocyte differentiation inducer, positive control [reference compound]”, for which, in the assay on C2C12 muscle cells [1] (200 nM insulin), the “time at which GLUT4 translocation occurs after stimulation” value came out at 15 min. Besides, the “ORO stained lipid droplets, fold higher than vehicle (DMSO)” value in assay [2] (1 µM insulin, day 7) is reported as 4.8 fold. The “first appearance of lipid droplets after treatment” value in assay [2] is 3 days. In addition, the “expression levels of adipogenic markers” value in assay [4] is given as “significantly increased”.
Consider `COC(=O)C(OC(C)=O)C1C(C)(C)C(O)C2CC3=C4CC(=O)O[C@@H](c5ccoc5)[C@@]4(C)CCC3[C@@]1(C)C2=O` (stereo partly shown) [6OA, 6-O-acetylswietenolide], for which, in the assay on C2C12 muscle cells [1], the “GLUT4 translocation to the plasma membrane” value is “increase in GLUT4 translocation” and the “time … after treatment” value amounted to 15 min. Moreover, in assay [2], the “induction of 3T3-L1 differentiation into lipid-producing adipocytes” value is recorded as “induce 3T3-L1 cells differentiation into lipid-producing adipocytes”. The “ORO stained lipid droplets, fold higher than vehicle treated cells” value in assay [2] (day 7) is on record as 1.3–1.6 fold. For the same molecule, in the assay on C2C12 muscle cells [3], the “glucose (2-NBDG) uptake” value was “significant increase”. Also, in assay [4], the “PPARγ mRNA expression, fold elevation” value is recorded as “five- to six” and the “expression levels of adipogenic markers” value was “increase”. The “fold increase” value at recombinant PPARγ is reported as 50 fold.
Consider `CN(CCOc1ccc(CC2SC(=O)NC2=O)cc1)c1ccccn1` (stereo not shown) [Rosiglitazone, rosiglitazone, reference compound], for which the “first appearance of lipid droplets after treatment” value in assay [2] was found to be 5 days. The “expression levels of adipogenic markers” value in assay [4] is on record as “increase”.

The values are drawn from article PMC6332226, “Potent PPARγ Ligands from Swietenia macrophylla Are Capable of Stimulating Glucose Uptake in Muscle Cells” (Molecules, 2015).
